Data on 2 compounds can be found in patent publication US9242963B2, “Organic compounds” (NOVARTIS AG, priority 2008, dated 2016).

The target in experiment [1] is T1, CYP11B1 (steroid 11-hydroxylase) (Homo sapiens, UniProt P15538).
T1 construct: the NCI-H295R cells have CYP11B2 (aldosterone synthase) and CYP11B1 (steroid 11-hydroxylase); host or cells: NCI-H295R
T1 sequence (P15538 25-503): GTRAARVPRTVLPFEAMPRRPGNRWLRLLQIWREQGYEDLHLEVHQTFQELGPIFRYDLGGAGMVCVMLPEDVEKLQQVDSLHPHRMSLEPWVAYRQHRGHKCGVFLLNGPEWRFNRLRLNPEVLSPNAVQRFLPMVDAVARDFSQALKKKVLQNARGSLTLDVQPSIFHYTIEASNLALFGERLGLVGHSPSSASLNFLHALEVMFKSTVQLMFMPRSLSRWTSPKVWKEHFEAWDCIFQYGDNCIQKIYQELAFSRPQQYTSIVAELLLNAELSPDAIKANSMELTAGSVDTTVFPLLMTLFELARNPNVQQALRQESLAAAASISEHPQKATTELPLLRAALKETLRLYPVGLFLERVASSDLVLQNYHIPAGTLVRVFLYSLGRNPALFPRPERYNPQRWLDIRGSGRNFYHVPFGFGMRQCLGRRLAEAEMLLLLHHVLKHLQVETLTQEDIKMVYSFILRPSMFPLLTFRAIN
Description: Cortisol cell secretion in NCI-H295R cells. The format is cell-based. Particulars: 24 hours incubation with cell stimulant. The source says:
(§1) The activities of a compound according to the present invention can be assessed by the following in vitro method well-described in the art.
(§2) In particular, the inhibition of aldosterone and cortisol secretion in vitro can be determined by the following assay.
(§3) The cell line NCI-H295R was originally isolated from an adrenocortical carcinoma and has been characterized in the literature through the stimulable secretion of steroid hormones and the presence of the enzymes essential for steroidogenesis. […]
(§4) For in vitro measurement of aldosterone and cortisol activity, human adrenocortical carcinoma NCI-H295R cells are seeded in NBS 96-well plates at a density of 25,000 cells/well in 100 μL of a growth medium containing DMEM/F12 supplemented with 10% FCS, 2.5% Nu-serum, 1 μg ITS/ml, and 1× antibiotic/antimycotic. […] At the end of incubation, the excretion of aldosterone and cortisol into the culture medium can be detected and quantified by commercially available, specific monoclonal antibodies in radioimmunoassays in accordance with the manufacturer's instructions.
(§5) Measurement of aldosterone can also be performed using a 96-well plate format. […] The amount of aldosterone in each sample is calculated by comparing with a standard curve generated using known quantities of the hormone. […]

For experiment [2], the target named is T2, CYP11B2 (aldosterone synthase) (Homo sapiens, UniProt P19099).
T2 construct: the NCI-H295R cells have CYP11B2 (aldosterone synthase) and CYP11B1 (steroid 11-hydroxylase); host or cells: NCI-H295R
T2 sequence (P19099 25-503): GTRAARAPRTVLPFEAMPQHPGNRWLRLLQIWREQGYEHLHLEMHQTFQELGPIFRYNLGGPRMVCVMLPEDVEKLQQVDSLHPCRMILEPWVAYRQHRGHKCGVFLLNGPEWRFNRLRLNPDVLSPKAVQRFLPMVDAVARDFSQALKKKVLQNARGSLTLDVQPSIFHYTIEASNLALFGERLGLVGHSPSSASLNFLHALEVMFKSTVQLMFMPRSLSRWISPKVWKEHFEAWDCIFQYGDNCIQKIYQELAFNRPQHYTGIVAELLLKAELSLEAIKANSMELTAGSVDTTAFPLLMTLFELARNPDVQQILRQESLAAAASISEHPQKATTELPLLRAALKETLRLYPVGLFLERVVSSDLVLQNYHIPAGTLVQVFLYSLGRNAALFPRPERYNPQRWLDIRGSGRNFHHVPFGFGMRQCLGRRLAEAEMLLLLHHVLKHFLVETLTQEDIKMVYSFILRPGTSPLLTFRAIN
The experiment can be described thus: Aldosterone cell secretion in NCI-H295R cells. It counts as cell-based. The conditions noted are these: 24 hours incubation with cell stimulant.
Description: as §1, §2, §3, §4, §5

For the compound `CCS(=O)(=O)NC(C)c1cncc(-c2c(C#N)c3ccc(Cl)cc3n2C)c1` (racemic) [216 (one enantiomer), (R) and (S)-ethanesulfonic acid {1-[5-(6-chloro-3-cyano-1-methyl-1H-indol-2-yl)-pyridin-3-yl]-ethyl}-amide], the IC50 in experiment [1] came to 600 nM; in experiment [2] it was 32 nM.
Take `CCS(=O)(=O)NC(C)c1cncc(-c2c(C#N)c3ccc(Cl)cc3n2C)c1` (racemic) [216 (other enantiomer), (R) and (S)-ethanesulfonic acid {1-[5-(6-chloro-3-cyano-1-methyl-1H-indol-2-yl)-pyridin-3-yl]-ethyl}-amide]: the IC50 stood at 1230 nM in experiment [1] and 35 nM in experiment [2].
